Like-named read-outs stand apart in the source and are kept apart here.
Key:
Type in all cases: biochemical
[1] = molecular target: T1, TTK (Homo sapiens, UniProt P33981); experiment: Kinase profiling TTK; conditions: for remaining activity at 100 µM: read-out: residual kinase activity, TTK
T1 sequence (P33981 1-857): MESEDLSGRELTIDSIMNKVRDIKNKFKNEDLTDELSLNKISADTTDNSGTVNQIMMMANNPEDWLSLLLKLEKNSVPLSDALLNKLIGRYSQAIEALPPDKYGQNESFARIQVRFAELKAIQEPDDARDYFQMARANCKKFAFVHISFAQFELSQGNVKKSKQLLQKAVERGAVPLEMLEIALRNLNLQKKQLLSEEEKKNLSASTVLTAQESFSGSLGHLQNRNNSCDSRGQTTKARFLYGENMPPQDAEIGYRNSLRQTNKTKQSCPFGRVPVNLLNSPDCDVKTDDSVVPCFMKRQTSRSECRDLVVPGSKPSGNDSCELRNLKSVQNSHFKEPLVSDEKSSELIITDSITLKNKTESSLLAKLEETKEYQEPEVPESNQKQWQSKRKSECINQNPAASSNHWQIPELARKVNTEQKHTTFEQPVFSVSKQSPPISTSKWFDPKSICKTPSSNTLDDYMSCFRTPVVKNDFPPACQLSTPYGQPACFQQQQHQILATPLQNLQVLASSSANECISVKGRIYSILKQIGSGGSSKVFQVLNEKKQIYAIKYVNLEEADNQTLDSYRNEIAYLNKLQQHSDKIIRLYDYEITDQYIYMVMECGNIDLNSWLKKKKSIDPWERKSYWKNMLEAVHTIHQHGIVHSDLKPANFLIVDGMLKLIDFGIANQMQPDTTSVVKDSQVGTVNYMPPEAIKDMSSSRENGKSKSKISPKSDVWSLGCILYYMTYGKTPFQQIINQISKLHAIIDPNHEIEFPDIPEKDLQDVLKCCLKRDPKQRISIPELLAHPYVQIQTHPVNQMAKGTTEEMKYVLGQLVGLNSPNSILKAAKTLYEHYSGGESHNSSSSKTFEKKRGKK
Description: (§1) Any value less that 25 is considered to be highly significant inhibition.

[2] = molecular target: DYRK1A (Homo sapiens, UniProt Q13627); experiment: DYRK 1A assay (kinase profiling); conditions: for remaining activity at 100 µM: read-out: residual kinase activity, DYRK1A
Method: Assays are stopped by addition of 5 μl of 0.5 M (3%) orthophosphoric acid and then harvested onto P81 Unifilter plates with a wash buffer of 50 mM orthophosphoric acid.
as §1

[3] = molecular target: ERK2 (Homo sapiens, UniProt P28482); experiment: Kinase profiling ERK2; conditions: for remaining activity at 100 µM: read-out: residual kinase activity, ERK2
Description: as §1

[4] = molecular target: CAMK1 (Homo sapiens, UniProt Q14012); experiment: Kinase profiling CAMK1; conditions: for remaining activity at 100 µM: read-out: residual kinase activity, CAMK1
Description: as §1

[5] = molecular target: JNK1 (Homo sapiens, UniProt P45983); experiment: Kinase profiling JNK1; conditions: for remaining activity at 100 µM: read-out: residual kinase activity, JNK1
Description: as §1

[6] = molecular target: T2, PDK1 (Homo sapiens, UniProt O15530); experiment: Kinase profiling PDK1; conditions: for remaining activity at 100 µM: read-out: residual kinase activity, PDK1
T2 sequence (O15530 1-556): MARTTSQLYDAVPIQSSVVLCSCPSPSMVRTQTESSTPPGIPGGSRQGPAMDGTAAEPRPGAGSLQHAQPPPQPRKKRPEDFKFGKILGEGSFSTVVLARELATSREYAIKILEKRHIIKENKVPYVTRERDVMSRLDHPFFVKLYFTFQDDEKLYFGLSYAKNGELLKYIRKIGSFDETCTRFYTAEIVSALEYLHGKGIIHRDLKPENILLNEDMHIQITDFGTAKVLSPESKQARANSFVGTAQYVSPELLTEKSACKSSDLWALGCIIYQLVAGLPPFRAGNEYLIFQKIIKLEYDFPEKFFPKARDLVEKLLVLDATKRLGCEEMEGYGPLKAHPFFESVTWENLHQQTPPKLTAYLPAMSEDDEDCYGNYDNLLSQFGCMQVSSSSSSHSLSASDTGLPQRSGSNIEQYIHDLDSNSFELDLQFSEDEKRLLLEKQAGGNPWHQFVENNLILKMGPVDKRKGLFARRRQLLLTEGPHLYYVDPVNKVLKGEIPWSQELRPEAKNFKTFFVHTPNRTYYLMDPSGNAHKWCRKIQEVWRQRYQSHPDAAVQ
Description: as §1

[7] = molecular target: PAK4 (Homo sapiens, UniProt O96013); experiment: Kinase profiling PAK4; conditions: for remaining activity at 100 µM: read-out: residual kinase activity, PAK4
Description: as §1

[8] = molecular target: Src (Homo sapiens, UniProt P12931); experiment: Kinase profiling Src; conditions: for remaining activity at 100 µM: read-out: residual kinase activity, Src
Description: as §1

[9] = molecular target: MKK1 (Homo sapiens, UniProt Q02750); experiment: Kinase profiling MKK1; conditions: for remaining activity at 100 µM: read-out: residual kinase activity, MKK1
Description: as §1

[10] = molecular target: TrkA (Homo sapiens, UniProt P04629); experiment: Kinase profiling TrkA; conditions: for remaining activity at 100 µM: read-out: residual kinase activity, TrkA
Description: as §1

[11] = molecular target: RSK1 (Homo sapiens, UniProt Q15418); experiment: Kinase profiling RSK1; conditions: for remaining activity at 100 µM: read-out: residual kinase activity, RSK1
Description: as §1

[12] = molecular target: RSK2 (Homo sapiens, UniProt P51812); experiment: Kinase profiling RSK2; conditions: for remaining activity at 100 µM: read-out: residual kinase activity, RSK2
Description: as §1

[13] = molecular target: NEK6 (Homo sapiens, UniProt Q9HC98); experiment: Kinase profiling NEK6; conditions: for remaining activity at 100 µM: read-out: residual kinase activity, NEK6
Description: as §1

[14] = molecular target: p38b MAPK (Homo sapiens, UniProt Q15759); experiment: Kinase profiling p38b MAPK; conditions: for remaining activity at 100 µM: read-out: residual kinase activity, p38b MAPK
Description: as §1

[15] = molecular target: CHK2 (Homo sapiens, UniProt O96017); experiment: Kinase profiling CHK2; conditions: for remaining activity at 100 µM: read-out: residual kinase activity, CHK2
Description: as §1

[16] = molecular target: PLK1 (Homo sapiens, UniProt P53350); experiment: Kinase profiling PLK1; conditions: for remaining activity at 100 µM: read-out: residual kinase activity, PLK1
Description: as §1

[17] = system: CK2; experiment: Kinase profiling CK2
Description: as §1

[18] = molecular target: HER4 (Homo sapiens, UniProt Q15303); experiment: Kinase profiling HER4; conditions: for remaining activity at 100 µM: read-out: residual kinase activity, HER4
Description: as §1

[19] = 100 micromolar inhibitor, 100 = no change
[20] = 100 micromolar inhibitor concentration, 100 is no change

Chain of PLK1 (P53350 whole entry, species assumed): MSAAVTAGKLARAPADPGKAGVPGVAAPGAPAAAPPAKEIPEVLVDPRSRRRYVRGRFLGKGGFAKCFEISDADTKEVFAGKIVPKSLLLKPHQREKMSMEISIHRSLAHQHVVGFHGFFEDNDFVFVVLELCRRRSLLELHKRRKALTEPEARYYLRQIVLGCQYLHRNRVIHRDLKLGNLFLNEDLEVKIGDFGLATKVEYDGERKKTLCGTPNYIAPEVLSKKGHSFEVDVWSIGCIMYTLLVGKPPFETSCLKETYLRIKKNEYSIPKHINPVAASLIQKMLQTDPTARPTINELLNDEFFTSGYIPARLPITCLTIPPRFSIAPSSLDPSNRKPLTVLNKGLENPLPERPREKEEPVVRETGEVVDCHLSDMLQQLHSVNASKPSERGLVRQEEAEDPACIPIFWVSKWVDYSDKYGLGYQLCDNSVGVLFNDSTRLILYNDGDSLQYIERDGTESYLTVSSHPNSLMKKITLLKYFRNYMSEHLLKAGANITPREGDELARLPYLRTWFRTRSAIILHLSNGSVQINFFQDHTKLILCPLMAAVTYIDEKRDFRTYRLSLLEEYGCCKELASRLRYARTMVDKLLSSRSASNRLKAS
Chain of CAMK1 (Q14012 whole entry, species assumed): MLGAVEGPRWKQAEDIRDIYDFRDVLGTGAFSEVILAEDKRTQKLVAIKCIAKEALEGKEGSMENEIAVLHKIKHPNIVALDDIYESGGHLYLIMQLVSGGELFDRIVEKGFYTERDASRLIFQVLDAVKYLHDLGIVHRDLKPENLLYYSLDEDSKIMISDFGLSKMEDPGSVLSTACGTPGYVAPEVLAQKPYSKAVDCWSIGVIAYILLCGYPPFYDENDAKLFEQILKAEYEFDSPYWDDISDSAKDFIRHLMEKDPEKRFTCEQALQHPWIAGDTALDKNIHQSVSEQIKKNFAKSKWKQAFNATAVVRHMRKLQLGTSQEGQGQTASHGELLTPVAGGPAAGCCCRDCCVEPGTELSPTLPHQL
Chain of ERK2 (P28482 whole entry, species assumed): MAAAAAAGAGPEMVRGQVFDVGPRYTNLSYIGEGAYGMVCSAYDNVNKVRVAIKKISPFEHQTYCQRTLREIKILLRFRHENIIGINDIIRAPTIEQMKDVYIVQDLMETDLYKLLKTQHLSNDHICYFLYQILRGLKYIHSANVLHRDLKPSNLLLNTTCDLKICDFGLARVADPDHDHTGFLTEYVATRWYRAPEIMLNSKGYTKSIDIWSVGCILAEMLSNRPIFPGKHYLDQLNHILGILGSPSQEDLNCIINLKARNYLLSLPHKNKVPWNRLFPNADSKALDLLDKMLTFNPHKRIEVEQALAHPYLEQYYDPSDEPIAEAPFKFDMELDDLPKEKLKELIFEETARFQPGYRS
Chain of Src (P12931 whole entry, species assumed): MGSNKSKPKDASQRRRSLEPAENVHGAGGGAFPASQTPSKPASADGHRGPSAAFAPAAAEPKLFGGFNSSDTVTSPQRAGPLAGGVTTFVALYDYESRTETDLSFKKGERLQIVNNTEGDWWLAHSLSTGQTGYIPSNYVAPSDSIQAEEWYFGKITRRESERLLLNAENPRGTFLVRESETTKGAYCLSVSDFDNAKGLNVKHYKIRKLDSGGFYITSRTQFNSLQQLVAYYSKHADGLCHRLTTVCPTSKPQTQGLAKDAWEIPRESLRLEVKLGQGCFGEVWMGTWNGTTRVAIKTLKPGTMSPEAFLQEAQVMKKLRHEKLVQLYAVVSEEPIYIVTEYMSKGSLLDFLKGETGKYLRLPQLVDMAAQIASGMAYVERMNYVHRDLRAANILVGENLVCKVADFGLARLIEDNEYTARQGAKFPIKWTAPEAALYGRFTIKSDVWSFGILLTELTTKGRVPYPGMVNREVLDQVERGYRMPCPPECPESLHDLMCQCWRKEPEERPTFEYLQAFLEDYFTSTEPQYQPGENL
Chain of MKK1 (Q02750 whole entry, species assumed): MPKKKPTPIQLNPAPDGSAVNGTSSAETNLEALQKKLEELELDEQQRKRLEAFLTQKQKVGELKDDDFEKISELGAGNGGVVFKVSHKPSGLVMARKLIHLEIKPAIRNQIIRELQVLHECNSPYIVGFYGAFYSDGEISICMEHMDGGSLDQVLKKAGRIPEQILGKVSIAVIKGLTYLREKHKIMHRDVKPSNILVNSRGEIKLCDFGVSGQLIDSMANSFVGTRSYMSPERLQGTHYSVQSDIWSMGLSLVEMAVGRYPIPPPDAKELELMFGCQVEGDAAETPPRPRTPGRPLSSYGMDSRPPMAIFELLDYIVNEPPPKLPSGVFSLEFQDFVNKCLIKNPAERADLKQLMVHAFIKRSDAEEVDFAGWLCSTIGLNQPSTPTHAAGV
Chain of PAK4 (O96013 whole entry, species assumed): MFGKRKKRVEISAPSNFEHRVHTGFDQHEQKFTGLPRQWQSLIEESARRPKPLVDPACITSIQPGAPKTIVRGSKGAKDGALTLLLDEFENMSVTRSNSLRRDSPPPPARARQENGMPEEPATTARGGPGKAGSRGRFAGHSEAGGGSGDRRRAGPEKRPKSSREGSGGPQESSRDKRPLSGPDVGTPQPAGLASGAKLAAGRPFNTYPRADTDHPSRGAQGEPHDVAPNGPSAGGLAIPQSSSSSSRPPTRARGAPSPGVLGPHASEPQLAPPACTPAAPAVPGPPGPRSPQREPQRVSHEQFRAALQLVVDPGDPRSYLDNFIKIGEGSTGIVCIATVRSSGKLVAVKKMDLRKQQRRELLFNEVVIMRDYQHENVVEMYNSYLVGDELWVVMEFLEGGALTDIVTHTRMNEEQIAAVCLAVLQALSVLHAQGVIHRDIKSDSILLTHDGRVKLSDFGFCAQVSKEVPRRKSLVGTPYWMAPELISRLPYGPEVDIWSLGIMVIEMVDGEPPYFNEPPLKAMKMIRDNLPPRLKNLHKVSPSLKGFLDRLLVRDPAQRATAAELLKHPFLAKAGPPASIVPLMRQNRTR
Chain of HER4 (Q15303 26-1308, species assumed): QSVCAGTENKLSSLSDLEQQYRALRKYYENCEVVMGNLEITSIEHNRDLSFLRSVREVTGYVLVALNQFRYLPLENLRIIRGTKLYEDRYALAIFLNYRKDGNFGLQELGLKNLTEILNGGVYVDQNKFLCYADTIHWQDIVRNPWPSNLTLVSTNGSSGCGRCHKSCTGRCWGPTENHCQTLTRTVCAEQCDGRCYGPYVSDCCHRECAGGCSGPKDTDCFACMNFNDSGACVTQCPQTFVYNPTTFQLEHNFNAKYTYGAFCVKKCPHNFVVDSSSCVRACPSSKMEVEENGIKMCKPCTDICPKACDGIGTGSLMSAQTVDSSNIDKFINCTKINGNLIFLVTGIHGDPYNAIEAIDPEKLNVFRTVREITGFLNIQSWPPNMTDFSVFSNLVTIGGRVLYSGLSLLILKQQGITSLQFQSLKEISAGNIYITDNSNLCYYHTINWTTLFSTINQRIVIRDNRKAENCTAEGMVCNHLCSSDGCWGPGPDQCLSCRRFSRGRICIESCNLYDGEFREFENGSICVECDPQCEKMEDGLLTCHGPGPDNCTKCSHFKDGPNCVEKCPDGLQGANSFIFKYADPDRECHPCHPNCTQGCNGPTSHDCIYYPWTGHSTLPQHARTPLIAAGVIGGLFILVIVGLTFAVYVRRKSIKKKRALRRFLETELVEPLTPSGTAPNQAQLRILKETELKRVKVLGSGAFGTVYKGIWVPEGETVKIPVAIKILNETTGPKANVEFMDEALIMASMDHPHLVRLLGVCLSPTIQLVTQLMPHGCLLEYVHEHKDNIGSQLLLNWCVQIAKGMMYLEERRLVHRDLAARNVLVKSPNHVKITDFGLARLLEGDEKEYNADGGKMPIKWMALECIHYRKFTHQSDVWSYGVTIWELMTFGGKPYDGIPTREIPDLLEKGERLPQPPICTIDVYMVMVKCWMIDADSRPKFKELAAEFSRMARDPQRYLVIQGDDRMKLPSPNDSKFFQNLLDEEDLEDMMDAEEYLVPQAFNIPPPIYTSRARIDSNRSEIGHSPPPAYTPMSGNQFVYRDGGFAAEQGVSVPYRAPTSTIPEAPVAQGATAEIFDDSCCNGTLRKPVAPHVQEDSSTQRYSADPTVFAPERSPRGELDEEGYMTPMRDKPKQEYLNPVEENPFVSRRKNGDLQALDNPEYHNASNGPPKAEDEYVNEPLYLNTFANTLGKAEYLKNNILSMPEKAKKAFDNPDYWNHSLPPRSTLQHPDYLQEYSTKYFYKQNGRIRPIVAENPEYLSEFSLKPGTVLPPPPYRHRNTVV
Chain of p38b MAPK (Q15759 whole entry): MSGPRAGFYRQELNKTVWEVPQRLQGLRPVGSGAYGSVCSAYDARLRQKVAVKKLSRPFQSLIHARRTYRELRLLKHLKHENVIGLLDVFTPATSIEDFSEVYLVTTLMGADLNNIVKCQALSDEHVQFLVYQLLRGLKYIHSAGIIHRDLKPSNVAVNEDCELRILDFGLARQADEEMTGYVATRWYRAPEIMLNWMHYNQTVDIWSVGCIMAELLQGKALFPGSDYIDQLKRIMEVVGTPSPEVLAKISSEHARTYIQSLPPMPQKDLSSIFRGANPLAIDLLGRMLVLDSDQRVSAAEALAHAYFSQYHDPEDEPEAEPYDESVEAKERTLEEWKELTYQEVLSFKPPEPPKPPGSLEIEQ
Chain of JNK1 (P45983 whole entry, species assumed): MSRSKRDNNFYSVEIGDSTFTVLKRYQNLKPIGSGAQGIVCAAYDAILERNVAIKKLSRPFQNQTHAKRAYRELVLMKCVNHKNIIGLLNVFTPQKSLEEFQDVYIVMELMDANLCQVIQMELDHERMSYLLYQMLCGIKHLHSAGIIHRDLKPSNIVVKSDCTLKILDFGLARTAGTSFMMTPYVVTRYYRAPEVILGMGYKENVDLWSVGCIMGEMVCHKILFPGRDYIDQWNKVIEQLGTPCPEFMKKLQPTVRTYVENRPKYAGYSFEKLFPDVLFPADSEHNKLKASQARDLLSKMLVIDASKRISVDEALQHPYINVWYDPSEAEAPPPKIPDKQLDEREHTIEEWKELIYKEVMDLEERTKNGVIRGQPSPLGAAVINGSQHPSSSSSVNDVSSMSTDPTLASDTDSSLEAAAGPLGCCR

| SMILES | residual kinase activity, TTK [1, 20] | residual kinase activity, DYRK1A [2, 20] | residual kinase activity, ERK2 [3, 20] | residual kinase activity, CAMK1 [4, 20] | residual kinase activity, JNK1 [5, 20] | residual kinase activity, PDK1 [6, 20] | residual kinase activity, PAK4 [7, 20] | residual kinase activity, Src [8, 20] | residual kinase activity, MKK1 [9, 20] | residual kinase activity, TrkA [10, 20] | residual kinase activity, RSK1 [11, 20] | residual kinase activity, RSK2 [12, 20] | residual kinase activity, NEK6 [13, 20] | residual kinase activity, p38b MAPK [14, 20] | residual kinase activity, CHK2 [15, 20] | residual kinase activity, PLK1 [16, 20] | residual kinase activity, CK2 [17, 20] | residual kinase activity, HER4 [18, 20] | other results |
| --- | --- | --- | --- | --- | --- | --- | --- | --- | --- | --- | --- | --- | --- | --- | --- | --- | --- | --- | --- |
| CC(=O)Nc1cccc(NC(=O)c2nc3ccc(O)cc3s2)c1 [Compound 03-07, N-(3-acetamidophenyl)-6-hydroxybenzo[d]thiazole-2-carboxamide] | – | – | – | – | – | – | – | – | – | – | – | – | – | – | – | – | – | – | remaining activity at 100 µM [1, 19]: 28%; remaining activity at 100 µM [2, 19]: 30%; remaining activity at 100 µM [3, 19]: 96%; remaining activity at 100 µM [4, 19]: 44%; remaining activity at 100 µM [5, 19]: 103%; remaining activity at 100 µM [6, 19]: 72%; remaining activity at 100 µM [7, 19]: 92%; remaining activity at 100 µM [8, 19]: 101%; remaining activity at 100 µM [9, 19]: 85%; remaining activity at 100 µM [10, 19]: 59%; remaining activity at 100 µM [11, 19]: 48%; remaining activity at 100 µM [12, 19]: 71%; remaining activity at 100 µM [13, 19]: 91%; remaining activity at 100 µM [14, 19]: 96%; remaining activity at 100 µM [15, 19]: 23%; remaining activity at 100 µM [16, 19]: 93%; residual kinase activity, CK2 [17, 19]: 35; remaining activity at 100 µM [18, 19]: 50% |
| O=C(Nc1nc2cc(O)ccc2s1)c1ccncc1 [Compound 03-11] | 74 | 50 | 85 | 85 | 95 | 100 | 73 | 79 | 88 | 87 | 83 | 71 | 72 | 97 | 93 | 76 | 68 | 96 | – |
| O=C(Nc1nc2ccc(O)cc2s1)c1ccccn1 [Compound 03-12] | 36 | 33 | 88 | 47 | 105 | 88 | 87 | 105 | 80 | 49 | 67 | 53 | 98 | 105 | 23 | 65 | 57 | 33 | – |
| O=C(Nc1nc2cc(O)ccc2s1)c1ccccn1 [Compound 03-13] | 53 | 25 | 100 | 111 | 93 | 104 | 115 | 70 | 107 | 57 | 70 | 72 | 107 | 91 | 75 | 96 | 78 | 98 | – |
| COc1ccc2sc(NC(C)=O)nc2c1 [Compound 03-21] | – | – | – | – | – | – | – | – | – | – | – | – | – | – | – | – | 87 | – | remaining activity at 100 µM [1, 20]: 67%; remaining activity at 100 µM [2, 20]: 2%; remaining activity at 100 µM [3, 20]: 109%; remaining activity at 100 µM [4, 20]: 81%; remaining activity at 100 µM [5, 20]: 97%; remaining activity at 100 µM [6, 20]: 115%; remaining activity at 100 µM [7, 20]: 94%; remaining activity at 100 µM [8, 20]: 86%; remaining activity at 100 µM [9, 20]: 64%; remaining activity at 100 µM [10, 20]: 78%; remaining activity at 100 µM [11, 20]: 93%; remaining activity at 100 µM [12, 20]: 94%; remaining activity at 100 µM [13, 20]: 108%; remaining activity at 100 µM [14, 20]: 101%; remaining activity at 100 µM [15, 20]: 58%; remaining activity at 100 µM [16, 20]: 90%; remaining activity at 100 µM [18, 20]: 94% |
